For data set [1], the target named is T1, C-C chemokine receptor type 2 (Homo sapiens, UniProt P41597). Kind of data set: Displacement of [125]hMCP1 from human CCR2 receptor expressed in human monocytes. The data set is classed as cell-based.
In data set [2] the target is C-C chemokine receptor type 2 (Mus musculus) (UniProt P51683). Kind of data set: Displacement of [125]hMCP1 from mouse CCR2 receptor expressed in CHO cells at 1 uM. Type of data set: cell-based.
Data set [3] has as its target T1, C-C chemokine receptor type 2. Briefly: Antagonist activity against human CCR2 receptor assessed as inhibition of MCP1-induced calcium flux in human monocytes. Type of data set: functional, cell-based.
Target sequence in this assay (P41597 whole entry): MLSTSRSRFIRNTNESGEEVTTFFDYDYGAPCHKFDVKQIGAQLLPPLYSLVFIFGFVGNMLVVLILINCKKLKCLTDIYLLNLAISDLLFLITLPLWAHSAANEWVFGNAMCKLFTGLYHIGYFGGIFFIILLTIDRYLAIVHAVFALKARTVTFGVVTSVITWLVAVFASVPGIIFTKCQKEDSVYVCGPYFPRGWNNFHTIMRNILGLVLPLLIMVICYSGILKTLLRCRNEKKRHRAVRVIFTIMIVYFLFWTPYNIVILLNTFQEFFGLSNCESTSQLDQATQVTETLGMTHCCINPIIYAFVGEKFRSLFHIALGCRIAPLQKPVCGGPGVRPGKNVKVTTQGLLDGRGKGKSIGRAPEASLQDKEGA
Data set [4] has as its target C-C chemokine receptor type 2 (Mus musculus) (UniProt P51683). Kind of data set: (§1) Displacement of [125]hMCP1 from mouse CCR2 receptor expressed in CHO cells. The data set is classed as cell-based.
Data set [5] addresses C-C chemokine receptor type 5 (Homo sapiens, UniProt P51681). Kind of data set: Displacement of MIP1alpha from CCR5 receptor.
Data set [6] is described as follows: Oral bioavailability in rat. The data set is classed as ADME, organism-based. As to conditions: in vivo.
A short description of data set [7]: Plasma clearance in rat. The data set is classed as ADME, organism-based.
Data set [8] can be described thus: Half life in rat. Type of data set: ADME, organism-based. As to conditions: in vivo.
Data set [9] can be described thus: Volume of distribution in rat. Type of data set: ADME, organism-based. Conditions: in vivo, read-out: Vss.
Data set [10] has as its target C-C chemokine receptor type 2 (Mus musculus, UniProt P51683). The description is as §1. Type of data set: cell-based.
The target in data set [11] is T1, C-C chemokine receptor type 2. Briefly: Displacement of [125]hMCP1 from human CCR2 receptor expressed in human monocytes at 1 uM. The data set is classed as cell-based.
Target sequence in this assay (P41597 whole entry, looked up): as the sequence (P41597 whole entry) above

The source made the active and inactive calls. The calls are words filed in the database; no cut-off is given here.

Sequence of C-C chemokine receptor type 2 (Mus musculus) (P51683 whole entry, looked up): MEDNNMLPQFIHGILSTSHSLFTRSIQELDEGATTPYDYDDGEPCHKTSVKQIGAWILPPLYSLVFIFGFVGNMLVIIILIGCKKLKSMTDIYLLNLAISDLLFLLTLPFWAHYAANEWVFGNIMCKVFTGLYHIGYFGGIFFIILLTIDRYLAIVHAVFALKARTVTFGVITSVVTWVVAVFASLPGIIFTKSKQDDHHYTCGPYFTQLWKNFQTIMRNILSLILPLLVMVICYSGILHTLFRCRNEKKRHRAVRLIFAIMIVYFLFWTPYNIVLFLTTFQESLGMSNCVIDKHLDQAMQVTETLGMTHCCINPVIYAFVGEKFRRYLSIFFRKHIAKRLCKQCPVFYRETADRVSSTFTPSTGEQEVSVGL
Sequence of C-C chemokine receptor type 5 (P51681 whole entry): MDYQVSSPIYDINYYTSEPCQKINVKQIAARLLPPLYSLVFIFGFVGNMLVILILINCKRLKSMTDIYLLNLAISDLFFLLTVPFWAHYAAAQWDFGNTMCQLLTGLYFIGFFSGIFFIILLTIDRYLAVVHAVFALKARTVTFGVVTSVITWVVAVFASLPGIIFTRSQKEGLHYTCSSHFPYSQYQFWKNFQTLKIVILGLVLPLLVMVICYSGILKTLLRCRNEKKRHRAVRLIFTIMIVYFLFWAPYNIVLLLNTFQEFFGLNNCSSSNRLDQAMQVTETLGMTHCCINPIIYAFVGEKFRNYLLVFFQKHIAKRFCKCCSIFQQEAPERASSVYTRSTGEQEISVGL
Sequence of C-C chemokine receptor type 2 (Mus musculus, UniProt P51683) (P51683 whole entry): as the sequence (P51683 whole entry, looked up) above

`C[C@H]1CN([C@@H]2CC[C@H](C(=O)NCc3cc(C(F)(F)F)cc(C(F)(F)F)c3)C2)CC[C@@]12C=Cc1ccccc12`: the results for the IC50 in [1] and in [3] were 0.0014 µM and 0.0023 µM, respectively. In addition, the Activity in data set [2] turned out to be 27%. The compound `CC1C[C@@H](N2CC[C@@]3(C=Cc4ccccc43)[C@@H](C)C2)C[C@H]1C(=O)NCc1cc(C(F)(F)F)cc(C(F)(F)F)c1` (some centres undefined) showed an IC50 in data set [1] of over 1 µM. In addition, the outcome in [4] was inactive. Turning to `C[C@H]1CN([C@@H]2CC[C@](C)(C(=O)NCc3cc(C(F)(F)F)cc(C(F)(F)F)c3)C2)CC[C@@]12C=Cc1ccccc12`, the IC50 in [5] is 0.63 µM; in data set [1] it was 0.0013 µM; in data set [10] it was 0.13 µM. The bioavailability in data set [6] came to 15%. Moreover, the clearance in [7] is 3 L/h/kg. This compound had a half-life in [8] of 8.1 h. In addition, the Vd in data set [9] was 6 L/kg. Turning to `O=C(NCc1cc(C(F)(F)F)cc(C(F)(F)F)c1)[C@@H]1CC[C@H](N2CCC(c3ccccc3)CC2)C1`, the Activity in data set [11] worked out at 30%. On to `O=C(NCc1cc(C(F)(F)F)cc(C(F)(F)F)c1)C1CCCC(N2CCC(c3ccccc3)CC2)C1` (centres undefined), for which the Activity in data set [11] came to 23%. Still for that read-out and setting: then `O=C(NCc1cc(C(F)(F)F)cc(C(F)(F)F)c1)[C@@H]1CC[C@@H](N2CCC(c3ccccc3)CC2)C1`, with 25%. The compound `O=C(NCc1cc(C(F)(F)F)cc(C(F)(F)F)c1)[C@H]1CC[C@@H](N2CCC(c3ccccc3)CC2)C1` yielded an IC50 in [1] of 0.036 µM. As to `O=C1C(CCN2CCC(c3ccccc3)CC2)CCN1Cc1cc(C(F)(F)F)cc(C(F)(F)F)c1` (centres undefined), the result in data set [1] was inactive. Compound `O=C(NCc1cc(C(F)(F)F)cc(C(F)(F)F)c1)C1CCC(N2CCC(c3ccccc3)CC2)C1` (centres undefined) displayed an IC50 in data set [1] of 0.065 µM.

In the case of `C[C@]1(C(=O)NCc2cc(C(F)(F)F)cc(C(F)(F)F)c2)CC[C@@H](N2CCC3(C=Cc4ccccc43)CC2)C1`, the IC50 in data set [1] turned out to be 0.047 µM. Also, the Activity in [2] was 27%. The compound `O=C(NCc1cc(C(F)(F)F)cc(C(F)(F)F)c1)[C@H]1CC[C@@H](N2CCC3(C=Cc4ccccc43)CC2)C1` came in with an IC50 in [1] of 0.0075 µM. Besides, the result in data set [4] was inactive. Regarding `O=C1C(CCN2CCC(c3ccccc3)CC2)CCCN1Cc1cc(C(F)(F)F)cc(C(F)(F)F)c1` (centres undefined), in data set [1], the result was inactive. Take `O=C(NCc1cc(C(F)(F)F)cc(C(F)(F)F)c1)[C@H]1CC[C@H](N2CCC(c3ccccc3)CC2)C1`: the Activity in data set [11] turned out to be 44%.
